Test results reported in US20230293458A1, “MULTIBIOTIC AGENTS AND METHODS OF USING THE SAME” (Flagship Pioneering Innovations V, Inc., priority 2017, published 2023).

What was measured:
[1] = Stability of multibiotic agents in Simulated Intestinal Fluid (SIF); format: in vitro ADME; conditions: simulated intestinal fluid pH 6.7 with pancreatin, 37° C., 1 μM
Description: Assay 2. Stability of multibiotic agents in Simulated Intestinal Fluid (SIF). This assay can be used to assess the stability of a multibiotic agent in a small intestine. Phosphate buffer was prepared by dissolving 0.42 g of sodium hydroxide pellets and 3.95 g of monobasic sodium phosphate monohydrate and 6.19 g of sodium chloride in ultrapure water (MilliQ®, Millipore Sigma, Darmstadt, Germany). The pH was adjusted to 6.7 using aq. HCl and aq. NaOH, as necessary, and the solution was diluted with ultrapure water to produce 1 L of the pH 6.7 buffer. 112 mg FaSSIF powder (Biorelevant™, London, UK) was dissolved in 50 mL of the pH 6.7 buffer. 2 to 3 mL of the resulting solution were then added to 500 mg pancreatin (Millipore Sigma, Darmstadt, Germany). The resulting mixture was agitated by finger tapping the vessel containing the mixture until milky suspension formed. At this time, the remainder of the 50 mL FaSSiF/pH 6.7 buffer solution was added. The resulting suspension was flipped upside down 10 times to produce SIF, which was used fresh. Test compounds are dissolved in DMSO stock to 1 mM. An aliquot of the DMSO stock solution is removed and diluted in the SIF media in 15 mL falcon tubes to produce a mixture with a tested compound concentration of 1 μM. A 1 mL aliquot is immediately removed and diluted once with 1 volume of acetonitrile for T0 timepoint. The mixture is sealed and agitated at 37° C. in an incubator. Aliquots (1 mL) are removed at regular intervals and immediately quenched by the addition of 1 volume of acetonitrile. The resulting samples are analyzed by LC/MS to determine degradation rates.

[2] = Stability of multibiotic agents in Simulated Gastric Fluid (SGF); format: in vitro ADME; conditions: simulated gastric fluid pH 1.6 with pepsin, 37° C., 1 μM
Description: Assay 3. Stability of multibiotic agents in Simulated Gastric Fluid (SGF). This assay can be used to assess the stability of a multibiotic agent in a stomach.
Medium was prepared by dissolving 2 g of sodium chloride in 0.6 L in ultrapure water (MilliQ®, Millipore Sigma, Darmstadt, Germany). The pH was adjusted to 1.6 with 1 N hydrochloric acid, and the volume was then adjusted to 1 L with purified water.
60 mg FaSSIF powder (Biorelevant™, London, UK) were dissolved in 500 mL buffer (above). Pepsin was added (0.1 mg/mL) (Millipore Sigma, Darmstadt, Germany), and the solution was stirred. The resulting SGF media were used fresh for each experiment.
Test compounds were dissolved in DMSO stock to 1 mM. An aliquot of the DMSO stock solution was removed and diluted in the SGF Media in 15 mL falcon tubes to generate a total compound concentration of 1 μM. A 1 mL aliquot was immediately removed and diluted once with 1 volume of acetonitrile for T0 timepoint. The mixture was sealed and mixed at 37° C. in an incubator. Aliquots (1 mL) were removed at regular intervals and immediately quenched by the addition of 1 volume of acetonitrile. The resulting samples were analyzed by LC/MS to determine degradation rates in SGF.

| Structure (SMILES) | Assay 3 (SIF) (% @ Remaining 4 hours) [1] | Assay 2 (SGF) (% Remaining @ 4 hours) [2] |
| --- | --- | --- |
| CC(O)CCOC(=O)c1cc(N)ccc1O (stereo in doubt) [Example 112, [(3R)-3-hydroxybutyl] 5-amino-2-hydroxy-benzoate] | C (>75% of the tested compound remaining) | C (>75% of the tested compound remaining) |
| CCCC(=O)OCC(OC(=O)CCC)[C@@H](OC(=O)CCC)[C@H](OC(=O)CCC)C(OC(=O)CCC)C(=O)O (stereo in doubt) [Example 113, (2S,3S,4R,5S)-2,3,4,5,6-penta(butanoyloxy)hexanoic acid] | B (25-75% of the tested compound remaining) | C (>75% of the tested compound remaining) |
| COc1cc(/C=C/C(=O)CC(=O)/C=C/c2ccc(OC(=O)Cc3c[nH]c4ccccc34)c(OC)c2)ccc1OC(=O)Cc1c[nH]c2ccccc12 [Example 1, [4-[(1E,6E)-7-[4-[2-(1H-indol-3-yl)acetyl]oxy-3-methoxy-phenyl]-3,5-dioxo-hepta-1,6-dienyl]-2-methoxy-phenyl] 2-(1H-indol-3-yl)acetate] | C (>75% of the tested compound remaining) | C (>75% of the tested compound remaining) |
| CCCC(=O)Oc1ccc(N)cc1C(=O)O [Example 2, 5-amino-2-butanoyloxy-benzoic acid] | C (>75% of the tested compound remaining) | C (>75% of the tested compound remaining) |
| CCCC(=O)Oc1ccc(/N=N/c2ccc(OC(=O)CCC)c(C(=O)O)c2)cc1C(=O)O [Example 3, 2-butanoyloxy-5-[(E)-(4-butanoyloxy-3-carboxy-phenyl)azo]benzoic acid] | A (<25% of the tested compound remaining) | A (<25% of the tested compound remaining) |
| CCCC(=O)Oc1ccc(/C=C/c2cc(OC(=O)CCC)cc(OC(=O)CCC)c2)cc1 [Example 7, [4-[(E)-2-[3,5-di(butanoyloxy)phenyl]vinyl]phenyl] butanoate] | B (25-75% of the tested compound remaining) | C (>75% of the tested compound remaining) |
| O=C(Cc1c[nH]c2ccccc12)Oc1ccc(/C=C/c2cc(OC(=O)Cc3c[nH]c4ccccc34)cc(OC(=O)Cc3c[nH]c4ccccc34)c2)cc1 [Example 8, [4-[(E)-2-[3,5-bis[[2-(1H-indol-3-yl)acetyl]oxy]phenyl]vinyl]phenyl] 2-(1H-indol-3-yl)acetate] | C (>75% of the tested compound remaining) | C (>75% of the tested compound remaining) |
| O=C(CCCc1ccccc1)Oc1ccc(/C=C/c2cc(OC(=O)CCCc3ccccc3)cc(OC(=O)CCCc3ccccc3)c2)cc1 [Example 9, [4-[(E)-2-[3,5-bis(4-phenylbutanoyloxy)phenyl]vinyl]phenyl] 4-phenylbutanoate] | C (>75% of the tested compound remaining) | – |
| CCCC(=O)Oc1ccc(/C=C/C(=O)CC(=O)/C=C/c2ccc(OC(=O)CCC)c(OC)c2)cc1OC [Example 14, [4-[(1E,6E)-7-(4-butanoyloxy-3-methoxy-phenyl)-3,5-dioxo-hepta-1,6-dienyl]-2-methoxy-phenyl] butanoate] | C (>75% of the tested compound remaining) | C (>75% of the tested compound remaining) |
| CC(=O)Oc1ccc2c(c1)oc(=O)c1cc(OC(C)=O)c(OC(C)=O)cc12 [Example 51, (8,9-diacetoxy-6-oxo-benzo[c]chromen-3-yl) acetate] | C (>75% of the tested compound remaining) | C (>75% of the tested compound remaining) |
| O=C(Cc1c[nH]c2ccccc12)Oc1ccc2c(c1)oc(=O)c1cc(OC(=O)Cc3c[nH]c4ccccc34)c(OC(=O)Cc3c[nH]c4ccccc34)cc12 [Example 55, [8,9-bis[[2-(1H-indol-3-yl)acetyl]oxy]-6-oxo-benzo[c]chromen-3-yl] 2-(1H-indol-3-yl)acetate] | B (25-75% of the tested compound remaining) | C (>75% of the tested compound remaining) |
| O=C(CCc1c[nH]c2ccccc12)Oc1ccc2c(c1)oc(=O)c1cc(OC(=O)CCc3c[nH]c4ccccc34)c(OC(=O)CCc3c[nH]c4ccccc34)cc12 [Example 56, [8,9-bis[3-(1H-indol-3-yl)propanoyloxy]-6-oxo-benzo[c]chromen-3-yl] 3-(1H-indol-3-yl)propanoate] | C (>75% of the tested compound remaining) | C (>75% of the tested compound remaining) |
| CCCCCCCC(=O)Oc1ccc2c(c1)oc(=O)c1cc(OC(=O)CCCCCCC)c(OC(=O)CCCCCCC)cc12 [Example 57, [8,9-di(octanoyloxy)-6-oxo-benzo[c]chromen-3-yl] octanoate] | – | C (>75% of the tested compound remaining) |
| CCCCCCCC(=O)Oc1ccc(/C=C/c2cc(OC(=O)CCCCCCC)cc(OC(=O)CCCCCCC)c2)cc1 [Example 69, [4-[(E)-2-[3,5-di(octanoyloxy)phenyl]vinyl]phenyl] octanoate] | – | C (>75% of the tested compound remaining) |
| CCCCCCCCCC(=O)Oc1ccc(/C=C/c2cc(OC(=O)CCCCCCCCC)cc(OC(=O)CCCCCCCCC)c2)cc1 [Example 70, [4-[(E)-2-[3,5-di(decanoyloxy)phenyl]vinyl]phenyl] decanoate] | – | C (>75% of the tested compound remaining) |
| CC(C)(COC(=O)CCc1c[nH]c2ccccc12)[C@@H](OC(=O)CCc1c[nH]c2ccccc12)C(=O)NCCCOC(=O)CCc1c[nH]c2ccccc12 [Example 93, 3-[[(2R)-2,4-bis[3-(1H-indol-3-yl)propanoyloxy]-3,3-dimethyl-butanoyl]amino]propyl 3-(1H-indol-3-yl)propanoate] | A (<25% of the tested compound remaining) | – |
| O=C(Cc1c[nH]c2ccccc12)O[C@H]1CO[C@H]2[C@@H]1OC[C@H]2OC(=O)Cc1c[nH]c2ccccc12 [Example 109, [(3S,3aR,6R,6aR)-6-[2-(1H-indol-3-yl)acetyl]oxy-2,3,3a,5,6,6a-hexahydrofuro[3,2-b]furan-3-yl] 2-(1H-indol-3-yl) acetate] | A (<25% of the tested compound remaining) | – |
| CCCC(=O)O[C@@H]1[C@@H](OC(=O)CCC)[C@H](Oc2ccccc2C(=O)O)OC[C@H]1OC(=O)CCC [Example 120, 2-[(2S,3R,4S,5R)-3,4,5-tri(butanoyloxy)tetrahydropyran-2-yl]oxybenzoic acid] | A (<25% of the tested compound remaining) | – |
| CCCC(=O)O[C@@H]1[C@@H](OC(=O)CCC)[C@@H](Oc2ccc(N)cc2C(=O)O)OC[C@@H]1OC(=O)CCC [Example 121, 5-amino-2-[(2R,3R,4S,5S)-3,4,5-tri(butanoyloxy)tetrahydropyran-2-yl]oxy-benzoic acid] | C (>75% of the tested compound remaining) | – |
| CCC(=O)O[C@H]1[C@H](OC(=O)CC)COC(OC(=O)CCc2c[nH]c3ccccc23)[C@@H]1OC(=O)CC (stereo partly drawn) [Example 168, [(3R,4S,5R)-3,4,5-tri(propanoyloxy)tetrahydropyran-2-yl] 3-(1H-indol-3-yl)propanoate] | – | C (>75% of the tested compound remaining) |
